# Laboratory results taken from patent US20250074891A1 (Anaxis Pharma Pty Ltd., priority 2021, published 2025).
# pKd: −log10 of the molar value.
# Assays:
# RIP1 = RIP1 (Homo sapiens (Human), UniProt Q13546); experiment: KINOMEscan binding assay, RIP1; details: Table 35
# MLKL (full length) = MLKL (full length) (Homo sapiens (Human), UniProt Q8NB16); experiment: KINOMEscan binding assay, MLKL (full length); details: Table 35
# Procedure: Kinase assays. For most assays, kinase-tagged T7 phage strains were grown in parallel in 24-well blocks in an E. coli host derived from the BL21 strain. E. coli were grown to log-phase and infected with T7 phage from a frozen stock (multiplicity of infection=0.4) and incubated with shaking at 32° C. until lysis (90-150 minutes).
# The Hill Slope was set to −1.
# Sequence of RIP1 (Q13546 whole entry): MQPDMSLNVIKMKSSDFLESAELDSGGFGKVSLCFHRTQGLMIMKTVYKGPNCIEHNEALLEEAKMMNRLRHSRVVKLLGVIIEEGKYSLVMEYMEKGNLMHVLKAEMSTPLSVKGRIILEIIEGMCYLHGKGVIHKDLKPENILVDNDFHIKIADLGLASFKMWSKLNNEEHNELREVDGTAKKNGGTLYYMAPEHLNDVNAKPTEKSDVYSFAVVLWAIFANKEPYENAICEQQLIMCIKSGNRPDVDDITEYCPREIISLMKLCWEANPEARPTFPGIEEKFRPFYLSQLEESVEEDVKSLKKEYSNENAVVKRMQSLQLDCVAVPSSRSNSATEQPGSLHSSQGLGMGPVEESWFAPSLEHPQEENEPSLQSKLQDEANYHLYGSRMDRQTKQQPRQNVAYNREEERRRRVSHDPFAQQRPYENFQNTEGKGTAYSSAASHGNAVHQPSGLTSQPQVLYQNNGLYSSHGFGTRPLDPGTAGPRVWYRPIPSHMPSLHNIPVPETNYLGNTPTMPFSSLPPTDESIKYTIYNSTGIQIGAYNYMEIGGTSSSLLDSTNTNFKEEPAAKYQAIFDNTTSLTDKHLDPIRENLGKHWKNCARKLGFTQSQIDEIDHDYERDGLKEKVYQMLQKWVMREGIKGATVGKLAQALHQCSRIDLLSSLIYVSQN
# Sequence of MLKL (full length) (Q8NB16 whole entry): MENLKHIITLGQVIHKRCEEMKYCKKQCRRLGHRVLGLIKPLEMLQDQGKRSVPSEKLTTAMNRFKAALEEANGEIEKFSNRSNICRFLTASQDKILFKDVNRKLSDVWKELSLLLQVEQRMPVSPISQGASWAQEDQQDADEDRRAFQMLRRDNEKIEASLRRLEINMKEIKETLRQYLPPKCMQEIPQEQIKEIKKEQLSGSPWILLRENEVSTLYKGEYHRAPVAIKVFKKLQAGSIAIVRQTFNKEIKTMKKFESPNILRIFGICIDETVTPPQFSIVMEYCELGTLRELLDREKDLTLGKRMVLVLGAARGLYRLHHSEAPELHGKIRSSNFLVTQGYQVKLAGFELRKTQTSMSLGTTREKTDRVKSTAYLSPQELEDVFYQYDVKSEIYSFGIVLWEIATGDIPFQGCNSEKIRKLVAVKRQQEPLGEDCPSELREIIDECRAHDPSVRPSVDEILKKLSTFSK
SMILES,pKd (RIP1),pKd (MLKL (full length))
"CCS(=O)(=O)Nc1ccc(-c2n[nH]c(Nc3ccnc(OC)c3)c2C(N)=O)cc1OCc1ccc(F)cc1 [Compound 18, 3-(4-(ethylsulfonamido)-3-((4-fluorobenzyl)oxy)phenyl) 5-((2-methoxypyridin-4-yl)amino)-1H-pyrazole-4-carboxamide]",< 4.52,> 8.00
"CCS(=O)(=O)Nc1ccc(-c2n[nH]c(Nc3cccc(C(F)(F)F)n3)c2C(N)=O)cc1OCc1cccnc1 [Compound 33, 3-(4-(ethylsulfon-amido)-3-(pyridin-3-ylmethoxy)phenyl)-5-((6-(trifluoro-methyl)pyridin-2-yl)amino)-1H-pyrazole-4-carboxamide]",< 4.52,
"CCS(=O)(=O)Nc1ccc(-c2n[nH]c(Nc3cnccn3)c2C(N)=O)cc1OC [Compound 61, 3-(4-(ethylsulfon-amido)-3-methoxy-phenyl)-5-(pyrazin-2-ylamino)-1H-pyrazole-4-carboxamide]",< 4.52,
"CCS(=O)(=O)Nc1ccc(-c2n[nH]c(Nc3cnc(C(C)C)cn3)c2C(N)=O)cc1 [Compound 66, 3-(4-(ethylsulfonamido)phenyl)-5-((5-isopropylpyrazin-2-yl)amino)-1H-pyrazole-4-carboxamide]",< 4.52,> 8.00
"CC(C)S(=O)(=O)Nc1ccc(-c2n[nH]c(Nc3cnccn3)c2C(N)=O)cc1 [Compound 71, 3-(4-((1-methylethyl)sulfonamido)phenyl)-5-(pyrazin-2-ylamino)-1H-pyrazole-4-carboxamide]",< 4.52,> 8.00
"NC(=O)c1c(-c2ccc(NS(=O)(=O)C3CCCCC3)cc2)n[nH]c1Nc1cnccn1 [Compound 74, 3-(4-(cyclohexanesulfonamido)phenyl)-5-(pyrazin-2-ylamino)-1H-pyrazole-4-carboxamide]",< 4.52,
"NC(=O)c1c(-c2ccc(NS(=O)(=O)Cc3ccccc3)cc2)n[nH]c1Nc1cnccn1 [Compound 77, 3-(4-((phenylmethyl)sulfonamido)phenyl)-5-(pyrazin-2-ylamino)-1H-pyrazole-4-carboxamide]",< 4.52,
"CCS(=O)(=O)Nc1ccc(-c2n[nH]c(Nc3cc(C(F)(F)F)ccn3)c2C(N)=O)cc1 [Compound 85, 3-(4-(ethylsulfonamido)phenyl)-5-((4-(trifluoromethyl)pyridin-2-yl)amino)-1H-pyrazole-4-carboxamide]",< 4.52,
"CCS(=O)(=O)Nc1ccc(-c2n[nH]c(Nc3ccc4ccccc4c3)c2C(N)=O)cc1 [Compound 86, 3-(4-(ethylsulfonamido)phenyl)-5-(naphthalen-2-ylamino)-1H-pyrazole-4-carboxamide]",< 4.52,> 8.00
"CCS(=O)(=O)Nc1ccc(-c2n[nH]c(Nc3ccc(OC)cn3)c2C(N)=O)cc1 [Compound 88, 3-(4-(ethylsulfonamido)phenyl)-5-((5-methoxypyridin-2-yl)amino)-1H-pyrazole-4-carboxamide]",,> 8.00
"CCS(=O)(=O)Nc1ccc(-c2n[nH]c(Nc3cccc(OC)n3)c2C(N)=O)cc1 [Compound 107, 3-(4-(ethylsulfonamido)phenyl)-5-((6-methoxypyridin-2-yl)amino)-1H-pyrazole-4-carboxamide]",< 4.52,> 8.00
"C#CCS(=O)(=O)Nc1ccc(-c2n[nH]c(Nc3ccnc(OCCOC)c3)c2C(N)=O)cc1 [Compound 109, 5-((2-(2-methoxyethoxy)pyridin-4-yl)amino)-3-(4-(prop-2-yn-1-ylsulfonamido)phenyl)-1H-pyrazole-4-carboxamide]",< 4.52,> 8.00
"COCCOc1cc(Nc2[nH]nc(-c3ccc(NS(=O)(=O)C(F)(F)F)cc3)c2C(N)=O)ccn1 [Compound 114, 5-((2-(2-methoxyethoxy)pyridin-4-yl)amino)-3-(4-((trifluoromethyl)sulfonamido)phenyl)-1H-pyrazole-4-carboxamide]",< 4.52,> 8.00
"CCS(=O)(=O)Nc1ccc(-c2n[nH]c(Nc3ccnc(OC)c3)c2C(N)=O)cc1 [Compound 121, 3-(4-(ethylsulfonamido)phenyl)-5-((2-methoxypyridin-4-yl)amino)-1H-pyrazole-4-carboxamide]",,> 8.00
"COCCOc1cc(Nc2[nH]nc(-c3ccc(NS(C)(=O)=O)cc3)c2C(N)=O)ccn1 [Compound 122, 5-((2-(2-methoxyethoxy)pyridin-4-yl)amino)-3-(4-(methylsulfonamido)phenyl)-1H-pyrazole-4-carboxamide]",< 4.52,> 8.00
"CCS(=O)(=O)Nc1ccc(-c2n[nH]c(Nc3cccc(OCCOC)n3)c2C(N)=O)cc1 [Compound 128, 3-(4-(ethylsulfonamido)phenyl)-5-((6-(2-methoxyethoxy)pyridin-2-yl)amino)-1H-pyrazole-4-carboxamide]",< 4.52,
"NC(=O)c1c(-c2ccc(NS(=O)(=O)CCc3ccccc3)cc2)n[nH]c1Nc1ccccn1 [Compound 130, 3-(4-((2-phenylethyl)sulfonamido)phenyl)-5-(pyridin-2-ylamino)-1H-pyrazole-4-carboxamide]",< 4.52,
"CCS(=O)(=O)Nc1ccc(-c2n[nH]c(Nc3ccccn3)c2C(N)=O)cc1 [Compound 131, 3-(4-(ethylsulfonamido)phenyl)-5-(pyridin-2-ylamino)-1H-pyrazole-4-carboxamide]",< 4.52,> 8.00
"NC(=O)c1c(-c2ccc(NS(=O)(=O)c3ccccc3)cc2)n[nH]c1Nc1ccccn1 [Compound 133, 3-(4-(phenylsulfonamido)phenyl)-5-(pyridin-2-ylamino)-1H-pyrazole-4-carboxamide]",< 4.52,
NC(=O)c1c(-c2ccc(NS(=O)(=O)CC3CCC3)cc2)n[nH]c1Nc1ccccn1 [Compound 134],< 4.52,
"CCS(=O)(=O)Nc1ccc(-c2n[nH]c(Nc3cnc(C)cn3)c2C(N)=O)cc1OCc1ccc(F)c(Cl)c1 [Compound 150, 3-(3-((3-chloro-4-fluorobenzyl)oxy)-4-(ethylsulfonamido)phenyl)-5-((5-methylpyrazin-2-yl)amino)-1H-pyrazole-4-carboxamide]",< 4.52,> 8.00
"CCS(=O)(=O)Nc1ccc(-c2n[nH]c(Nc3cnc(C(C)(C)C)cn3)c2C(N)=O)cc1 [Compound 181, 5-((5-(tert-butyl)pyrazin-2-yl)amino)-3-(4-(ethylsulfonamido)phenyl)-1H-pyrazole-4-carboxamide]",< 4.52,> 8.00

# Second part, the compound after the results:
pKd (RIP1),pKd (MLKL (full length)),SMILES
< 4.52,> 8.00,"NC(=O)c1c(-c2ccc(NS(=O)(=O)CC(F)(F)F)cc2)n[nH]c1Nc1cccc(C(F)(F)F)n1 [Compound 43, 3-(4-((2,2,2-trifluoroethyl)sulfonamido)phenyl)-5-((6-(trifluoromethyl)pyridin-2-yl)amino)-1H-pyrazole-4-carboxamide]"
< 4.52,> 8.00,"NC(=O)c1c(-c2ccc(NS(=O)(=O)CC(F)F)cc2)n[nH]c1Nc1cccc(C(F)(F)F)n1 [Compound 49, 3-(4-((2,2-difluoroethyl)sulfonamido)phenyl)-5-((6-(trifluoromethyl)pyridin-2-yl)amino)-1H-pyrazole-4-carboxamide]"
< 4.52,> 8.00,"NC(=O)c1c(-c2ccc(NS(=O)(=O)C3CC3)cc2)n[nH]c1Nc1cccc(C(F)(F)F)n1 [Compound 52, 3-(4-(cyclopropanesulfonamido)phenyl)-5-((6-(trifluoromethyl)pyridin-2-yl)amino)-1H-pyrazole-4-carboxamide]"
< 4.52,> 8.00,"NC(=O)c1c(-c2ccc(NS(=O)(=O)C(F)F)cc2)n[nH]c1Nc1cccc(C(F)(F)F)n1 [Compound 53, 3-(4-((difluoromethyl)sulfonamido)phenyl)-5-((6-(trifluoromethyl)pyridin-2-yl)amino)-1H-pyrazole-4-carboxamide]"
< 4.52,> 8.00,"CC(C)S(=O)(=O)Nc1ccc(-c2n[nH]c(Nc3cccc(C(F)(F)F)n3)c2C(N)=O)cc1 [Compound 54, 3-(4-((1-methylethyl)sulfonamido)phenyl)-5-((6-(trifluoromethyl)pyridin-2-yl)amino)-1H-pyrazole-4-carboxamide]"
< 4.52,,"NC(=O)c1c(-c2ccc(NS(=O)(=O)Cc3ccc(F)cc3)cc2)n[nH]c1Nc1cccc(C(F)(F)F)n1 [Compound 55, 3-(4-(((4-fluorophenyl)methyl)sulfonamido)phenyl)-5-((6-(trifluoromethyl)pyridin-2-yl)amino)-1H-pyrazole-4-carboxamide]"
< 4.52,,"NC(=O)c1c(-c2ccc(NS(=O)(=O)Cc3ccc(Cl)c(Cl)c3)cc2)n[nH]c1Nc1cccc(C(F)(F)F)n1 [Compound 56, 3-(4-((3,4-dichlorophenyl)methylsulfonamido)phenyl)-5-((6-(trifluoromethyl)pyridin-2-yl)amino)-1H-pyrazole-4-carboxamide]"
< 4.52,,"NC(=O)c1c(-c2ccc(NS(=O)(=O)Cc3ccccc3Cl)cc2)n[nH]c1Nc1cccc(C(F)(F)F)n1 [Compound 58, 3-(4-(((2-chlorophenyl)methyl)sulfonamido)phenyl)-5-((6-(trifluoromethyl)pyridin-2-yl)amino)-1H-pyrazole-4-carboxamide]"
,> 8.00,"CCS(=O)(=O)Nc1ccc(-c2n[nH]c(Nc3ccc4ccccc4n3)c2C(N)=O)cc1 [Compound 89, 3-(4-(ethylsulfonamido)phenyl)-5-(quinolin-2-ylamino)-1H-pyrazole-4-carboxamide]"
< 4.52,,"CCS(=O)(=O)Nc1ccc(-c2n[nH]c(Nc3cccc(C)n3)c2C(N)=O)cc1 [Compound 94, 3-(4-(ethylsulfonamido)phenyl)-5-((6-methylpyridin-2-yl)amino)-1H-pyrazole-4-carboxamide]"
< 4.52,,"NC(=O)c1c(-c2ccc(NS(=O)(=O)Cc3cccc(Cl)c3)cc2)n[nH]c1Nc1ccccn1 [Compound 129, 3-(4-(((3-chlorophenyl)methyl)sulfonamido)phenyl)-5-(pyridin-2-ylamino)-1H-pyrazole-4-carboxamide]"
